{"source": "paper PMC9241644", "about": "“Evaluation of Novel Quorum Sensing Inhibitors Targeting Auto-Inducer 2 (AI-2) for the Control of Avian Pathogenic Escherichia coli Infections in Chickens” (Microbiology Spectrum, 2022)", "key": {"[1]": {"details": "based on the observations during dosing in drinking water"}, "[2]": {"assay": "QSI-5 and SDM residue quantification in muscle, kidney and liver (LC-MS)", "format": "in vivo, chickens", "method": "The safety of QSI-5 and SDM was assessed by measuring the level of drug residue in the muscle, kidney, and liver using LC-MS (CCIC, MS&P Facility, OSU) as described before ([34]). As described above, chickens were administered with the optimized dose of QSI-5 (1 mg/L) and the therapeutic dose of SDM (495.323 mg/L) (0.05%) in drinking water daily for 7 days (starting from day 5 to day 11 of age). Tissue samples were collected individually from chickens treated with QSI-5 and SDM (five chickens per group) from experimental set up as described for floor trial at 2 DPLT, 5 DPLT, and […] (slaughter age). All samples were weighed and extracted at a 400 mg/mL ratio of tissue in the extraction solution (50:50 H2O: ACN). Samples were homogenized using a probe sonicator 20 times and centrifuged at 13,000 × g for 30 min. Sixty μL of the supernatant was transferred into glass vials and dried in a SpeedVac for 1.5 h, and then resuspended in 120 μL of 25:25:50 H2O:ACN:MeOH. Standard calibration, LC system, mass spectrometer, and drug target monitoring were performed as described above. Calibration standard curves for measuring the accumulation of QSI-5 and SDM in the kidney, liver, and muscle are shown in Fig. S6A and S6B."}, "Rif^R APEC O78 [3]": {"test_system": "Rif^R APEC O78", "assay": "Comparative efficacy of QSI-5 and SDM in field simulated conditions (built-up floor litter)", "format": "in vivo, Escherichia coli", "from_the_text": "(§1) Chickens were monitored for clinical signs for 8 DPI. Any chickens moribund during this period were humanely euthanized and necropsied to determine bacterial load in the internal organs (liver, heart, lung, and kidney). Internal organs were aseptically collected, weighed and suspended in 1× PBS, the amount of PBS added was adjusted based on the organ size to make a suspension, the organ size and amount of PBS added were included in the final calculation of the CFU. The samples were homogenized, serially diluted 10-fold, plated on MacConkey agar (Remel, CA, USA) containing 50 μg/mL rifampicin, and incubated at 37°C for 24 h to determine the CFU/g. Pathological lesions severity in internal organs (pericarditis, perihepatitis, airsacculitis, and lung congestion) was scored as described previously ([21], [59]). At 8 DPI, the remaining chickens were humanely euthanized and necropsied, lesions were scored, and the APEC load was quantified in internal organs as described above.\nTo compare the efficacy of QSI-5 with an antibiotic SDM currently used in the field, chickens (n = 70) were raised on built-up floor litter in a field-simulated conditions. One-day-old broiler chickens (Case Farms Ohio Hatchery, OH, USA) were used for conducting the experiment. The optimized dose of QSI-5 (1 mg/L) and the therapeutic dose of SDM (495.323 mg/L) (0.05%) were given in drinking water daily for 7 days (starting from day 5 to day 11 of age). The volume of drinking water needed daily was determined as described above. On day 6, the chickens were infected s/c with Rif^r APEC O78 (5 × 10^6 CFU/chicken, s/c). PC (0.05% DMSO treated and infected) and NC (non-infected and non-treated) control groups were included. The mortality was recorded daily until the end of the experiment (42 days of age: slaughter age). At 8 DPI, half of the chickens from each group were necropsied, lesions were scored, and the APEC load was quantified in the internal organs as described above. The other half of the chickens were raised until day 42 to determine the impact of treatment on the body weight gain and feed intake. To calculate the FCR, body weight was measured once every week and feed intake was recorded every day. On day 42, the remaining chickens were euthanized, body weight was measured and 10 chickens from each group were randomly selected and necropsied, lesions and APEC load were assessed in the internal organs."}, "Rif^R APEC O78 [4]": {"test_system": "Rif^R APEC O78", "assay": "Efficacy of QSIs in APEC-infected chickens (oral gavage pilot)", "format": "in vivo, Escherichia coli", "details": "Table S1, oral gavage pilot", "method": "The chicken experiment was carried out using 1-day-old broiler chickens (Mayer Hatchery, OH, USA). Feed and water were given ad libitum. Chickens (n = 6/group) were administered with the QSIs (QSI-1, QSI-2, QSI-5 − 8, QSI-10, ChemBridge, San Diego, CA); previously designated as C1, C2, C5, C6, C7, C8, C10 ([17]) using oral gavage. These compounds were selected based on their high efficacy in in vitro studies and the doses correspond to 30X of the initial in vitro screening concentration ([17]). The QSIs were suspended in dimethyl sulfoxide (DMSO; used as a vehicle) and administered once daily for 5 successive days (starting from day 4 to day 8). The first dose was administered 1 day before the challenge, followed by the second dose on the challenge day (2 h before challenge), followed by three additional doses on subsequent days. Feeders were removed 1 h prior to the treatment and replaced 1 h after the treatment. Chickens were challenged subcutaneously (s/c) on day 5 with Rif^R APEC O78 (1 × 10^7 CFU/bird) in PBS using syringe (27 gauge, 0.5 in.). The challenge dose, which […], was chosen based on preliminary experiments conducted with different infection routes (subcutaneous s/c, intra-tracheal and intra-airsacs) and different doses (10^6, 10^7, and 10^8 CFU/chicken). […] Therefore, we selected this challenge dose and route for evaluation of QSIs in chickens ([34]). The positive (PC; infected with APEC O78 and DMSO treated) and negative (NC; non-infected and non-treated) control groups were included.\nas §1"}}, "note": "Where “and” joins values, the source holds several entries; their conditions need not be identical. Equal entries are not always repeated.", "data": [{"smiles": "Cc1ccc(CN2CCN(CCCc3ccccc3)CC2)cc1", "note": "[QSI-5]", "values": [{"measurement": "aqueous solubility", "setting": "[1]", "value": "good aqueous solubility"}, {"measurement": "Drug accumulation, Kidney (ppm± SD)", "setting": "[2]; 2 DPLT", "value": "0.0 ± 0.0", "unit": "ppm"}, {"measurement": "Drug accumulation, Liver (ppm± SD)", "setting": "[2]; 2 DPLT", "value": "0.0 ± 0.0", "unit": "ppm"}, {"measurement": "Drug accumulation, Muscle (ppm± SD)", "setting": "[2]; 2 DPLT, drinking water 7 days (QSI-5 1 mg/L, SDM 495.323 mg/L)", "value": "0.0 ± 0.0", "unit": "ppm"}, {"measurement": "Drug accumulation, Kidney (ppm± SD)", "setting": "[2]; 5 DPLT", "value": "0.0 ± 0.0", "unit": "ppm"}, {"measurement": "Drug accumulation, Liver (ppm± SD)", "setting": "[2]; 5 DPLT", "value": "0.0 ± 0.0", "unit": "ppm"}, {"measurement": "Drug accumulation, Muscle (ppm± SD)", "setting": "[2]; 5 DPLT", "value": "0.0 ± 0.0", "unit": "ppm"}, {"measurement": "Drug accumulation, Kidney (ppm± SD)", "setting": "[2]; 35 DPLT (slaughter age)", "value": "0.0 ± 0.0", "unit": "ppm"}, {"measurement": "Drug accumulation, Liver (ppm± SD)", "setting": "[2]; 35 DPLT (slaughter age)", "value": "0.0 ± 0.0", "unit": "ppm"}, {"measurement": "Drug accumulation, Muscle (ppm± SD)", "setting": "[2]; 35 DPLT (slaughter age)", "value": "0.0 ± 0.0", "unit": "ppm"}, {"measurement": "Average lesion severity, Lung", "setting": "Rif^R APEC O78 [3]; Table S3, PC 1.85", "value": 0.21}, {"measurement": "Average lesion severity, Liver", "setting": "Rif^R APEC O78 [3]; Table S3, PC 2.52", "value": 1.68}, {"measurement": "Average lesion severity, Airsac", "setting": "Rif^R APEC O78 [3]; Table S3, PC 3.36", "value": 1.25}, {"measurement": "Average lesion severity, Heart", "setting": "Rif^R APEC O78 [3]; Table S3, PC 3.58", "value": 1.93}, {"measurement": "Average APEC load, Liver", "setting": "Rif^R APEC O78 [3]; Table S3, PC 7.24", "value": "4.95 Log CFU/ g of tissue"}, {"measurement": "Average APEC load, Lung", "setting": "Rif^R APEC O78 [3]; Table S3, PC 7.68", "value": "4.93 Log CFU/ g of tissue"}, {"measurement": "Average APEC load, Kidney", "setting": "Rif^R APEC O78 [3]; Table S3, PC 7.73", "value": "5.06 Log CFU/ g of tissue"}, {"measurement": "Average APEC load, Heart", "setting": "Rif^R APEC O78 [3]; Table S3, PC 7.92", "value": "5.46 Log CFU/ g of tissue"}, {"measurement": "Mortality rate % (Nr.)", "setting": "Rif^R APEC O78 [3]; Table S3, until 42 days of age, QSI-5 (8/63), SDM (19/65), PC 45.6 (31/68)", "value": 12.7, "unit": "%"}, {"measurement": "reduction in mortality compared with the PC group", "setting": "Rif^R APEC O78 [3]; built-up floor litter, QSI-5 1 mg/L, SDM 495.3 mg/L (0.05%) in drinking water 7 days, s/c APEC O78 5 × 10^6 CFU/chicken", "value": "88.4% and 72.2%"}, {"measurement": "Average lesion severity, Lung", "setting": "Rif^R APEC O78 [4]; lesion score, PC 1.25", "value": 0.17}, {"measurement": "Average lesion severity, Liver", "setting": "Rif^R APEC O78 [4]; lesion score, PC 1.75", "value": 0.33}, {"measurement": "Average lesion severity, Airsac", "setting": "Rif^R APEC O78 [4]; lesion score, PC 2.00", "value": 0.17}, {"measurement": "Average lesion severity, Heart", "setting": "Rif^R APEC O78 [4]; lesion score, PC 2.25", "value": 0.33}, {"measurement": "Mortality rate % (Nr.)", "setting": "Rif^R APEC O78 [4]; n = 6/group, 8 DPI, PC 66.6 (4/6)", "value": 0, "unit": "%"}, {"measurement": "Average APEC load, Liver", "setting": "Rif^R APEC O78 [4]; PC 5.95", "value": "0.72 Log CFU/g of tissue"}, {"measurement": "Average APEC load, Heart", "setting": "Rif^R APEC O78 [4]; PC 5.98", "value": "0.58 Log CFU/g of tissue"}, {"measurement": "Average APEC load, Kidney", "setting": "Rif^R APEC O78 [4]; PC 6.81", "value": "0.67 Log CFU/g of tissue"}, {"measurement": "Average APEC load, Lung", "setting": "Rif^R APEC O78 [4]; PC 6.83", "value": "0.75 Log CFU/g of tissue"}]}]}
